Measurements published in US12077537B2 (Gilead Sciences, Inc., priority 2020, dated 2024).

Tested on: HIV-IIIb
Assay: Antiviral assay in MT4 cells
Format: cell-based
Settings: Human immunodeficiency virus 1, MT4, 120 h; MT-4 cells mixed with HIV-IIIb at m.o.i. 0.003; 5 days at 37° C.; CellTiter-Glo luminescence; 50% decrease in signal, a measure of HIV-1 replication
Procedure, shortened: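 MT-4 cells were infected with HIV-IIIb at m.o.i. 0.003 for 1 hour, then added to 3-fold serially diluted compound (10 concentrations, quadruplicate) in medium with 10% FBS. After 5 days at 37° C, cell viability was read by CellTiter-Glo chemiluminescence.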

Compound	EC50 [nM]
Cn1nc(N)c2cccc(-c3cc4sc(N5CC(C)(O)C5)nc4nc3[C@H](Cc3cc(F)cc(F)c3)NC(=O)Cn3nc(C(F)F)c4c3C3CC3CC4)c21 (stereo partly drawn) [Compound 50, N—((S)-1-(6-(3-amino-1-methyl-1H-indazol-7-yl)-2-(3-hydroxy-3-methylazetidin-1-yl)thiazolo[4,5-b]pyridin-5-yl)-2-(3,5-difluorophenyl)ethyl)-2-(3-(difluoromethyl)-5,5a,6,6a-tetrahydrocyclopropa[g]indazol-1(4H)-yl)acetamide]	1.3
Cn1nc(NS(C)(=O)=O)c2cccc(-c3cc4sc(N5CC(C)(O)C5)nc4nc3[C@H](Cc3cc(F)cc(F)c3)NC(=O)Cn3nc(C(F)(F)F)c4c3C(F)(F)[C@@H]3C[C@H]43)c21 [Compound 53, 2-((3bS,4aR)-5,5-difluoro-3-(trifluoromethyl)-3b,4,4a,5-tetrahydro-1H-cyclopropa[3,4]cyclopenta[1,2-c]pyrazol-1-yl)-N—((S)-2-(3,5-difluorophenyl)-1-(2-(3-hydroxy-3-methylazetidin-1-yl)-6-(1-methyl-3-(methylsulfonamido)-1H-indazol-7-yl)thiazolo[4,5-b]pyridin-5-yl)ethyl)acetamide]	20.4
Cc1c(-c2cc3sc(NCC(C)(C)O)nc3nc2[C@H](Cc2cc(F)cc(F)c2)NC(=O)Cn2nc(C(F)(F)F)c3c2C(F)(F)[C@@H]2C[C@H]32)ccc2n[nH]c(=O)n12 [Compound 54, 2-((3bS,4aR)-5,5-difluoro-3-(trifluoromethyl)-3b,4,4a,5-tetrahydro-1H-cyclopropa[3,4]cyclopenta[1,2-c]pyrazol-1-yl)-N—((S)-2-(3,5-difluorophenyl)-1-(2-((2-hydroxy-2-methylpropyl)amino)-6-(5-methyl-3-oxo-2,3-dihydro-[1,2,4]triazolo[4,3-a]pyridin-6-yl)thiazolo[4,5-b]pyridin-5-yl)ethyl)acetamide]	26.2
Cn1nc(N)c2cccc(-c3cc4sc(N5CC(C)(O)C5)nc4nc3[C@H](Cc3cc(F)cc(F)c3)NC(=O)Cn3nc(C(F)(F)F)c4c3C(F)(F)[C@@H]3C[C@H]43)c21 [Compound 58, N—((S)-1-(6-(3-amino-1-methyl-1H-indazol-7-yl)-2-(3-hydroxy-3-methylazetidin-1-yl)thiazolo[4,5-b]pyridin-5-yl)-2-(3,5-difluorophenyl)ethyl)-2-((3bS,4aR)-5,5-difluoro-3-(trifluoromethyl)-3b,4,4a,5-tetrahydro-1H-cyclopropa[3,4]cyclopenta[1,2-c]pyrazol-1-yl)acetamide]	14.7
Cn1nc(N)c2cccc(-c3cc4sc(N5CC(C)(O)C5)nc4nc3[C@H](Cc3cc(F)cc(F)c3)NC(=O)Cn3nc(C(F)F)c4c3C(F)(F)[C@@H]3C[C@H]43)c21 [Compound 59, N—((S)-1-(6-(3-amino-1-methyl-1H-indazol-7-yl)-2-(3-hydroxy-3-methylazetidin-1-yl)thiazolo[4,5-b]pyridin-5-yl)-2-(3,5-difluorophenyl)ethyl)-2-((3bS,4aR)-3-(difluoromethyl)-5,5-difluoro-3b,4,4a,5-tetrahydro-1H-cyclopropa[3,4]cyclopenta[1,2-c]pyrazol-1-yl)acetamide]	16.3
Cn1nc(N)c2cccc(-c3cc4sc(NCC(C)(C)O)nc4nc3[C@H](Cc3cc(F)cc(F)c3)NC(=O)Cn3nc(C(F)F)c4c3C(F)(F)CCC4(F)F)c21 [Compound 60, (S)—N-(1-(6-(3-amino-1-methyl-1H-indazol-7-yl)-2-((2-hydroxy-2-methylpropyl)amino)thiazolo[4,5-b]pyridin-5-yl)-2-(3,5-difluorophenyl)ethyl)-2-(3-(difluoromethyl)-4,4,7,7-tetrafluoro-4,5,6,7-tetrahydro-1H-indazol-1-yl)acetamide]	60
CC(C)N1CCN(c2nc3nc([C@H](Cc4cc(F)cc(F)c4)NC(=O)Cn4nc(C(F)(F)F)c5c4C(F)(F)[C@@H]4C[C@H]54)c(-c4cccc5c(NS(C)(=O)=O)nn(C)c45)cc3s2)CC1 [Compound 64, 2-((3bS,4aR)-5,5-difluoro-3-(trifluoromethyl)-3b,4,4a,5-tetrahydro-1H-cyclopropa[3,4]cyclopenta[1,2-c]pyrazol-1-yl)-N—((S)-2-(3,5-difluorophenyl)-1-(2-(4-isopropylpiperazin-1-yl)-6-(1-methyl-3-(methylsulfonamido)-1H-indazol-7-yl)thiazolo[4,5-b]pyridin-5-yl)ethyl)acetamide]	9.2

Results, then the compound that gave them:

EC50 [nM]	Compound
9.7	Cn1nc(N)c2cccc(-c3cc4sc(NCC(C)(C)O)nc4nc3[C@H](Cc3cc(F)cc(F)c3)NC(=O)Cn3nc(C(F)(F)F)c4c3C(F)(F)[C@@H]3C[C@H]43)c21 [Compound 51, N—((S)-1-(6-(3-amino-1-methyl-1H-indazol-7-yl)-2-((2-hydroxy-2-methylpropyl)amino)thiazolo[4,5-b]pyridin-5-yl)-2-(3,5-difluorophenyl)ethyl)-2-((3bS,4aR)-5,5-difluoro-3-(trifluoromethyl)-3b,4,4a,5-tetrahydro-1H-cyclopropa[3,4]cyclopenta[1,2-c]pyrazol-1-yl)acetamide]
9.6	Cn1nc(NS(C)(=O)=O)c2cccc(-c3cc4sc(NCC(C)(C)O)nc4nc3[C@H](Cc3cc(F)cc(F)c3)NC(=O)Cn3nc(C(F)(F)F)c4c3C(F)(F)[C@@H]3C[C@H]43)c21 [Compound 52, 2-((3bS,4aR)-5,5-difluoro-3-(trifluoromethyl)-3b,4,4a,5-tetrahydro-1H-cyclopropa[3,4]cyclopenta[1,2-c]pyrazol-1-yl)-N—((S)-2-(3,5-difluorophenyl)-1-(2-((2-hydroxy-2-methylpropyl)amino)-6-(1-methyl-3-(methylsulfonamido)-1H-indazol-7-yl)thiazolo[4,5-b]pyridin-5-yl)ethyl)acetamide]
13.5	Cn1nc(NS(C)(=O)=O)c2cccc(-c3cc4sc(NCC(C)(C)O)nc4nc3[C@H](Cc3cc(F)cc(F)c3)NC(=O)Cn3nc(C(F)F)c4c3C(F)(F)[C@@H]3C[C@H]43)c21 [Compound 55, 2-((3bS,4aR)-3-(difluoromethyl)-5,5-difluoro-3b,4,4a,5-tetrahydro-1H-cyclopropa[3,4]cyclopenta[1,2-c]pyrazol-1-yl)-N—((S)-2-(3,5-difluorophenyl)-1-(2-((2-hydroxy-2-methylpropyl)amino)-6-(1-methyl-3-(methylsulfonamido)-1H-indazol-7-yl)thiazolo[4,5-b]pyridin-5-yl)ethyl)acetamide]
55.8	Cn1nc(NS(C)(=O)=O)c2cccc(-c3cc4sc(NCC(C)(C)O)nc4nc3[C@H](Cc3cc(F)cc(F)c3)NC(=O)Cn3nc(C(F)F)c4c3C(F)(F)CCC4(F)F)c21 [Compound 56, (S)-2-(3-(difluoromethyl)-4,4,7,7-tetrafluoro-4,5,6,7-tetrahydro-1H-indazol-1-yl)-N-(2-(3,5-difluorophenyl)-1-(2-((2-hydroxy-2-methylpropyl)amino)-6-(1-methyl-3-(methylsulfonamido)-1H-indazol-7-yl)thiazolo[4,5-b]pyridin-5-yl)ethyl)acetamide]
13	Cn1nc(N)c2cccc(-c3cc4sc(NCC(C)(C)O)nc4nc3[C@H](Cc3cc(F)cc(F)c3)NC(=O)Cn3nc(C(F)F)c4c3C(F)(F)[C@@H]3C[C@H]43)c21 [Compound 57, N—((S)-1-(6-(3-amino-1-methyl-1H-indazol-7-yl)-2-((2-hydroxy-2-methylpropyl)amino)thiazolo[4,5-b]pyridin-5-yl)-2-(3,5-difluorophenyl)ethyl)-2-((3bS,4aR)-3-(difluoromethyl)-5,5-difluoro-3b,4,4a,5-tetrahydro-1H-cyclopropa[3,4]cyclopenta[1,2-c]pyrazol-1-yl)acetamide]
10	CCS(=O)(=O)Nc1nn(C)c2c(-c3cc4sc(NCC(C)(C)O)nc4nc3[C@H](Cc3cc(F)cc(F)c3)NC(=O)Cn3nc(C(F)F)c4c3C(F)(F)[C@@H]3C[C@H]43)cccc12 [Compound 61, 2-((3bS,4aR)-3-(difluoromethyl)-5,5-difluoro-3b,4,4a,5-tetrahydro-1H-cyclopropa[3,4]cyclopenta[1,2-c]pyrazol-1-yl)-N—((S)-2-(3,5-difluorophenyl)-1-(6-(3-(ethylsulfonamido)-1-methyl-1H-indazol-7-yl)-2-((2-hydroxy-2-methylpropyl)amino)thiazolo[4,5-b]pyridin-5-yl)ethyl)acetamide]
7.9	Cn1nc(NS(=O)(=O)C2CC2)c2cccc(-c3cc4sc(NCC(C)(C)O)nc4nc3[C@H](Cc3cc(F)cc(F)c3)NC(=O)Cn3nc(C(F)F)c4c3C(F)(F)[C@@H]3C[C@H]43)c21 [Compound 62, N—((S)-1-(6-(3-(cyclopropanesulfonamido)-1-methyl-1H-indazol-7-yl)-2-((2-hydroxy-2-methylpropyl)amino)thiazolo[4,5-b]pyridin-5-yl)-2-(3,5-difluorophenyl)ethyl)-2-((3bS,4aR)-3-(difluoromethyl)-5,5-difluoro-3b,4,4a,5-tetrahydro-1H-cyclopropa[3,4]cyclopenta[1,2-c]pyrazol-1-yl)acetamide]
7.2	CCS(=O)(=O)Nc1nn(C)c2c(-c3cc4sc(NCC(C)(C)O)nc4nc3[C@H](Cc3cc(F)cc(F)c3)NC(=O)Cn3nc(C(F)(F)F)c4c3C(F)(F)[C@@H]3C[C@H]43)cccc12 [Compound 63, 2-((3bS,4aR)-5,5-difluoro-3-(trifluoromethyl)-3b,4,4a,5-tetrahydro-1H-cyclopropa[3,4]cyclopenta[1,2-c]pyrazol-1-yl)-N—((S)-2-(3,5-difluorophenyl)-1-(6-(3-(ethylsulfonamido)-1-methyl-1H-indazol-7-yl)-2-((2-hydroxy-2-methylpropyl)amino)thiazolo[4,5-b]pyridin-5-yl)ethyl)acetamide]
